Data reported in ChEMBL document CHEMBL5120880, “Peptidomimetics: An Overview of Recent Medicinal Chemistry Efforts toward the Discovery of Novel Small Molecule Inhibitors” (J Med Chem, 2022).
≈ marks a conversion by molar mass, not a printed value. Peptide text beside a SMILES is read from it.

Columns and labels:
[1] = tested on: Escherichia coli; assay: Antimicrobial activity against Escherichia coli KCTC 1682 assessed as minimal inhibitory concentration incubated for 18 hrs; assay type: functional
[2] = tested on: Pseudomonas aeruginosa; assay: Antimicrobial activity against Pseudomonas aeruginosa KCTC 1637 assessed as minimal inhibitory concentration incubated for 18 hrs; assay type: functional
[3] = tested on: Staphylococcus epidermidis; assay: Antimicrobial activity against Staphylococcus epidermidis KCTC 1917 assessed as minimal inhibitory concentration incubated for 18 hrs; assay type: functional
[4] = tested on: Staphylococcus aureus; assay: Antimicrobial activity against Staphylococcus aureus KCTC 1621 assessed as minimal inhibitory concentration incubated for 18 hrs; assay type: functional
[5] = tested on: Staphylococcus aureus; assay: Antibacterial activity against Staphylococcus aureus assessed as minimal inhibitory concentration incubated for 24 hrs; assay type: functional
[6] = tested on: Escherichia coli; assay: Antibacterial activity against Escherichia coli assessed as minimal inhibitory concentration incubated for 24 hrs; assay type: functional
[7] = tested on: Staphylococcus aureus; assay: Antibacterial activity against Staphylococcus aureus MRSA assessed as minimal inhibitory concentration incubated for 24 hrs; assay type: functional
[8] = tested on: Bacillus subtilis; assay: Antibacterial activity against Bacillus subtilis assessed as minimal inhibitory concentration incubated for 72 hrs; assay type: functional
[9] = tested on: Salmonella enterica; assay: Antibacterial activity against Salmonella enterica assessed as minimal inhibitory concentration incubated for 24 hrs; assay type: functional
[10] = tested on: Escherichia coli; assay: Antibacterial activity against Escherichia coli BW25113 assessed as minimal inhibitory concentration by microdilution assay; assay type: functional
[11] = tested on: Mycolicibacterium phlei; assay: Antibacterial activity against Mycobacterium phlei DSM750 assessed as minimal inhibitory concentration by microdilution assay; assay type: functional
[12] = tested on: Salmonella typhimurium; assay: Antibacterial activity against Salmonella typhimurium TA100 assessed as minimal inhibitory concentration by microdilution assay; assay type: functional, Salmonella enterica subsp. enterica serovar Typhimurium; conditions: Salmonella enterica
[13] = tested on: Bacillus subtilis; assay: Antibacterial activity against Bacillus subtilis DSM10 assessed as minimal inhibitory concentration by microdilution assay; assay type: functional
[14] = tested on: Middle East respiratory syndrome-related coronavirus; assay: microbe, parasite or virus in culture
[15] = tested on: Murine hepatitis virus; assay: microbe, parasite or virus in culture; conditions: Murine coronavirus
[16] = tested on: SARS-CoV-2; assay: microbe, parasite or virus in culture; conditions: Severe acute respiratory syndrome coronavirus 2
[17] = tested on: SARS-CoV; assay: microbe, parasite or virus in culture; conditions: Severe acute respiratory syndrome-related coronavirus
[18] = tested on: Feline infectious peritonitis virus; assay: microbe, parasite or virus in culture; conditions: Alphacoronavirus 1

CC(=O)NCCNc1nc(NCC(N)=O)nc(N(CCCN)CCCN)n1
MIC [1]: 128 µg/mL (≈ 335 µM)
MIC [2]: 128 µg/mL (≈ 335 µM)
MIC [3]: > 128 µg/mL
MIC [4]: > 128 µg/mL

C#Cc1cccc(NC(=O)[C@@H](N)CC(C)C)c1
MIC [5]: 10.6 µg/mL (≈ 46 µM)
MIC [6]: 10.6 µg/mL (≈ 46 µM)
MIC [7]: 31.2 µg/mL (≈ 135 µM)
MIC [8]: 31.2 µg/mL (≈ 135 µM)
MIC [9]: 15.6 µg/mL (≈ 67.7 µM)

CC(=O)NCCNc1nc(NCC(N)=O)nc(N(Cc2ccccc2)Cc2ccccc2)n1
MIC [1]: > 128 µg/mL
MIC [2]: > 128 µg/mL
MIC [3]: > 128 µg/mL
MIC [4]: > 128 µg/mL

CCCCCCCCCCCCNC(=O)[C@@H](N)c1ccccc1
MIC [5]: 7.8 µg/mL (≈ 24.5 µM)
MIC [6]: 2.5 µg/mL (≈ 7.85 µM)
MIC [7]: 15.6 µg/mL (≈ 49 µM)
MIC [8]: 15.6 µg/mL (≈ 49 µM)
MIC [9]: 3.9 µg/mL (≈ 12.2 µM)

CCCCCCCCCCCCNC(=O)[C@@H](N)CC(C)C
MIC [5]: 3.3 µg/mL (≈ 11.1 µM)
MIC [6]: 2.5 µg/mL (≈ 8.37 µM)
MIC [7]: 6.25 µg/mL (≈ 20.9 µM)
MIC [8]: 10 µg/mL (≈ 33.5 µM)
MIC [9]: 4.17 µg/mL (≈ 14 µM)

CCCCCCNC(=O)[C@@H](N)Cc1ccccc1
MIC [5]: 624 µg/mL (≈ 2510 µM)
MIC [6]: 156 µg/mL (≈ 628 µM)
MIC [7]: 312 µg/mL (≈ 1260 µM)
MIC [8]: 156 µg/mL (≈ 628 µM)
MIC [9]: 156 µg/mL (≈ 628 µM)

COc1c(CCc2ccc(NC(=O)[C@H](CC#N)NC(=O)c3ccc(NC(=O)/C(C)=C/c4ccc(O)cc4)cc3)cc2)ccc(C(=O)Nc2ccc(C(=O)O)c(O)c2OC)c1O
MIC [10]: 0.25 µg/mL (≈ 0.302 µM)
MIC [11]: 1 µg/mL (≈ 1.21 µM)
MIC [12]: 0.25 µg/mL (≈ 0.302 µM)
MIC [13]: 0.063 µg/mL (≈ 0.0761 µM)

CC(C)C[C@H](NC(=O)OC1CCCCC1)C(=O)N[C@H](C=O)C[C@H]1CCNC1=O
IC50 [14]: 350 nM
EC50 [15]: 120 nM
IC50 [16]: 3700 nM
IC50 [17]: 3900 nM
EC50 [18]: 90 nM

COc1c(C#Cc2ccc(NC(=O)[C@H](CC#N)NC(=O)c3ccc(NC(=O)/C(C)=C/c4ccc(O)cc4)cc3)cc2)ccc(C(=O)Nc2ccc(C(=O)O)c(O)c2OC)c1O
MIC [10]: < 0.063 µg/mL
MIC [11]: 0.5 µg/mL (≈ 0.607 µM)
MIC [12]: ≤ 0.016 µg/mL
MIC [13]: 0.063 µg/mL (≈ 0.0765 µM)

CCCCCCCCCCCCNC(=O)[C@@H](N)Cc1ccccc1
MIC [5]: 2.5 µg/mL (≈ 7.52 µM)
MIC [6]: 5 µg/mL (≈ 15 µM)
MIC [7]: 16.6 µg/mL (≈ 49.9 µM)
MIC [8]: 10 µg/mL (≈ 30.1 µM)
MIC [9]: 5 µg/mL (≈ 15 µM)

C#Cc1cccc(NC(=O)[C@@H](N)C(C)CC)c1 (some centres undefined)
MIC [5]: 31.2 µg/mL (≈ 135 µM)
MIC [6]: 15.6 µg/mL (≈ 67.7 µM)
MIC [7]: 62.4 µg/mL (≈ 271 µM)
MIC [9]: 15.6 µg/mL (≈ 67.7 µM)

CCCCNC(=O)[C@@H](N)Cc1ccccc1
MIC [5]: 1250 µg/mL (≈ 5670 µM)
MIC [7]: 624 µg/mL (≈ 2830 µM)
MIC [8]: 416 µg/mL (≈ 1890 µM)
MIC [9]: 416 µg/mL (≈ 1890 µM)

COc1c(NC(=O)c2ccc(NC(=O)c3ccc(NC(=O)[C@H](Cc4nn[nH]n4)NC(=O)c4ccc(NC(=O)/C(C)=C/c5ccc(O)cc5)cc4)cc3)c(OC)c2O)ccc(C(=O)O)c1O
MIC [10]: 0.063 µg/mL (≈ 0.0711 µM)
MIC [11]: 2 µg/mL (≈ 2.26 µM)
MIC [12]: 0.063 µg/mL (≈ 0.0711 µM)
MIC [13]: 0.25 µg/mL (≈ 0.282 µM)

CC(=O)N[C@@H](CCCCN)C(=O)N[C@@H](Cc1c[nH]c2ccccc12)C(=O)N[C@@H](CCCCN)C(=O)N[C@@H](Cc1c[nH]c2ccccc12)C(N)=O (Ac-KWKW-NH2)
MIC [1]: > 128 µg/mL
MIC [2]: > 128 µg/mL
MIC [3]: > 128 µg/mL
MIC [4]: > 128 µg/mL

CC(=O)N[C@@H](CCCCN)C(=O)N[C@@H](Cc1c[nH]c2ccccc12)C(=O)N[C@@H](CCCCN)C(N)=O (Ac-Lys-Trp-Lys-NH2)
MIC [1]: 64 µg/mL (≈ 128 µM)
MIC [2]: 128 µg/mL (≈ 255 µM)
MIC [3]: > 128 µg/mL
MIC [4]: > 128 µg/mL

CC(=O)N[C@@H](CCCCN)C(=O)N[C@@H](Cc1c[nH]c2ccccc12)C(N)=O (Ac-Lys-Trp-NH2)
MIC [1]: 128 µg/mL (≈ 343 µM)
MIC [2]: 128 µg/mL (≈ 343 µM)
MIC [3]: > 128 µg/mL
MIC [4]: > 128 µg/mL

CC(=O)N[C@@H](Cc1c[nH]c2ccccc12)C(=O)N[C@@H](CCCCN)C(=O)N[C@@H](Cc1c[nH]c2ccccc12)C(N)=O (Ac-Trp-Lys-Trp-NH2)
MIC [1]: > 128 µg/mL
MIC [2]: > 128 µg/mL
MIC [3]: > 128 µg/mL
MIC [4]: > 128 µg/mL
